{"source": "patent US12012392B2", "about": "“Sulfonamide carboxamide compounds” (Inflazome Limited, priority 2017, dated 2024)", "key": {"[1]": {"biological_target": "T1, NLRP3 (Homo sapiens, UniProt Q96P20)", "T1 sequence (Q96P20 whole entry)": "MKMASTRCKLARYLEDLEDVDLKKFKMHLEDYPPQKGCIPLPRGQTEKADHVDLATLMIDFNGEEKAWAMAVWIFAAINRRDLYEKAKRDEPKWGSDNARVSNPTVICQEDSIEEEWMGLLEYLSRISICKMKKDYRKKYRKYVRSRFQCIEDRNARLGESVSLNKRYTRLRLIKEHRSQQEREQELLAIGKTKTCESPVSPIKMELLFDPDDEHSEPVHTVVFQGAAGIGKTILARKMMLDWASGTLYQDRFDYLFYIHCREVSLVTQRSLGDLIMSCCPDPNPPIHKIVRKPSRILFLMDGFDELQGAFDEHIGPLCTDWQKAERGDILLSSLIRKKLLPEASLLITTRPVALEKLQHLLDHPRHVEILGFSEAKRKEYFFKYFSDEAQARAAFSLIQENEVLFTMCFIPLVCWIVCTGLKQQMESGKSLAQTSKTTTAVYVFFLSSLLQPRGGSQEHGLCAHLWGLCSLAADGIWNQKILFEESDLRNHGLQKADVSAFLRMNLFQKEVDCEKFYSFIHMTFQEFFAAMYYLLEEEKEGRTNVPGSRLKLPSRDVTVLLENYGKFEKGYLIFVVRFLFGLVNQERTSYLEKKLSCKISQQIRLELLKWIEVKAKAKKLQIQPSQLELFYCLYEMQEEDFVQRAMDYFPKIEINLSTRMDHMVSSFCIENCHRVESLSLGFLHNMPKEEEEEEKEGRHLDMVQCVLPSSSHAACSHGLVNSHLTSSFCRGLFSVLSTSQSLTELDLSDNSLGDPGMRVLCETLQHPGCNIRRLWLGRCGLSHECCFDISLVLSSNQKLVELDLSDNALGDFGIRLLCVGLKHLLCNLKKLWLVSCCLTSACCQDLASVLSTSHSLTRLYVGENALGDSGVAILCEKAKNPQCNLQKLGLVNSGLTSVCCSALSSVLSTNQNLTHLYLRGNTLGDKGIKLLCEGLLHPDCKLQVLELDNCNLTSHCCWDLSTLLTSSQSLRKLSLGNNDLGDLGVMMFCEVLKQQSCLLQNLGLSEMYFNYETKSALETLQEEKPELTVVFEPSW", "assay": "Human whole blood IL1β release assay", "assay_type": "cell-based", "set-up": "Plate out 80 μl of whole blood containing 1 μg/ml of LPS; from tissue; host or cells: human whole blood from healthy donors, LPS-primed, nigericin-stimulated", "settings": "LPS 1 μg/ml, nigericin 10 μM, IL-1β AlphaLisa, read-out: HWB IC50", "method": "For systemic delivery, the ability to inhibit NLRP3 when the compounds are present within the bloodstream is of great importance. For this reason, the NLRP3 inhibitory activity of a number of compounds in human whole blood was investigated in accordance with the following protocol.\nHuman whole blood in Li-heparin tubes was obtained from healthy donors from a volunteer donor panel. • 1. Plate out 80 μl of whole blood containing 1 μg/ml of LPS in 96-well, clear bottom cell culture plate (Corning #3585) • 2. Add […] compound (8 points half-log dilution with 10 μM top dose) or vehicle (DMSO 0.1% FAC) to the appropriate wells • 3. Incubate for 3 hrs at 37° C., 5% CO2 • 4. Add 10 μl Nigericin (Sigma #N7143) (10 μM FAC) to all wells • 5. Incubate for 1 hr at 37° C., 5 CO2 • 6. At the end of the incubation period, spin plates at 300×g for 5 mins to pellet cells and remove 20 μl of supernatant and add to 96-well v-bottom plates for […] analysis (note: these plates containing the supernatants can be stored at −80° C. to be analysed at a later date) • 7. IL-1β was measured according to the manufacturer protocol (Perkin Elmer-AlphaLisa IL-1 Kit AL220F-5000) • 8. IC50 data is fitted to anon-linear regression equation (log inhibitor vs response-variable slope 4-parameters)"}, "[2]": {"biological_target": "T1, NLRP3", "assay": "THP-1 cells pyroptosis assay", "assay_type": "cell-based", "set-up": "Seed THP-1 cells (25,000 cells/well) containing 1.0 μg/ml LPS; host or cells: THP-1 cells, LPS-primed, nigericin-stimulated", "settings": "LPS 1 μg/ml, nigericin 5 μM, resazurin read-out", "method": "THP-1 cells (ATCC #TIB-202) were grown in RPMI containing L-glutamine (Gibco #11835) supplemented with 1 mM sodium pyruvate (Sigma #S8636) and penicillin (100 units/ml)/streptomycin (0.1 mg/ml) (Sigma #P4333) in 10% Fetal Bovine Serum (FBS) (Sigma #F0804). The cells were routinely passaged and grown to confluency (˜10^6 cells/ml). On the day of the experiment, THP-1 cells were harvested and resuspended into RPMI medium (without FBS). The cells were then counted and viability (>90%) checked by Trypan blue (Sigma #T8154). Appropriate dilutions were made to give a concentration of 625,000 cells/ml. To this diluted cell solution was added LPS (Sigma #L4524) to give a 1 μg/ml Final Assay Concentration (FAC). 40 μl of the final preparation was aliquoted into each well of a 96-well plate. The plate thus prepared was used for compound screening.\nThe following method step-by-step assay was followed for compound screening. • 1. Seed THP-1 cells (25,000 cells/well) containing 1.0 μg/ml LPS in 40 μl of RPMI medium (without FBS) in 96-well, black walled, clear bottom cell culture plates coated with poly-D-lysine (VWR #734-0317) • 2. Add 5 μl compound (8 points half-log dilution, with 10 μM top dose) or vehicle (DMSO 0.1% FAC) to the appropriate wells • 3. Incubate for 3 hrs at 37° C. and 5% CO2 • 4. Add 5 μl nigericin (Sigma #N7143) (FAC 5 μM) to all wells • 5. Incubate for 1 hr at 37° C. and 5% CO2 • 6. At the end of the incubation period, spin plates at 300×g for 3 mins and remove supernatant • 7. Then add 50 μl of resazurin (Sigma #R7017) (FAC 100 μM resazurin in RPMI medium without FBS) and incubate plates for a further 1-2 hrs at 37° C. and 5% CO2 • 8. Plates were read in an Envision reader at Ex 560 nm and Em 590 nm • 9. IC50 data is fitted to a non-linear regression equation (log inhibitor vs response-variable slope 4-parameters) 96-Well Plate Map"}}, "note": "pIC50: −log10 of the molar value. Counter-ions that a name gives are not always drawn."}
{"smiles": "Cn1nc(S(=O)(=O)NC(=O)Nc2c3c(cc4c2CCC4)CCC3)cc1C(=O)N(CCO)CCO", "note": "[Example 61, 3-(N-((1,2,3,5,6,7-Hexahydro-s-indacen-4-yl)carbamoyl)sulfamoyl)-N,N-bis(2-hydroxyethyl)-1-methyl-1H-pyrazole-5-carboxamide]", "values": [{"measurement": "pIC50", "setting": "[1]", "result": "> 6.40"}, {"measurement": "pIC50", "setting": "[2]", "result": "6.19 to 6.80"}]}
{"smiles": "CC1(Cn2ccc(S(=O)(=O)NC(=O)Nc3c4c(cc5c3CCC5)CCC4)n2)COC1", "note": "[Example 9, N-((1,2,3,5,6,7-Hexahydro-s-indacen-4-yl)carbamoyl)-1-((3-methyloxetan-3-yl)methyl)-1H-pyrazole-3-sulfonamide, partial ammonium salt]", "values": [{"measurement": "pIC50", "setting": "[1]", "result": "5.00 to 5.49"}, {"measurement": "pIC50", "setting": "[2]", "result": "5.59 to 6.19"}]}
{"smiles": "CCN(CCO)C(=O)c1cc(S(=O)(=O)NC(=O)Nc2c3c(cc4c2CCC4)CCC3)nn1C", "note": "[Example 66, N-Ethyl-3-(N-((1,2,3,5,6,7-hexahydro-s-indacen-4-yl)carbamoyl)sulfamoyl)-N-(2-hydroxyethyl)-1-methyl-1H-pyrazole-5-carboxamide]", "values": [{"measurement": "pIC50", "setting": "[1]", "result": "5.80 to 6.10"}, {"measurement": "pIC50", "setting": "[2]", "result": "6.19 to 6.80"}]}
{"smiles": "O=C(Nc1c2c(cc3c1CCC3)CCC2)NS(=O)(=O)c1ccn(CC(O)C(F)(F)F)n1", "note": "(centres unmarked) [Example 30, N-((1,2,3,5,6,7-Hexahydro-s-indacen-4-yl)carbamoyl)-1-(3,3,3-trifluoro-2-hydroxypropyl)-1H-pyrazole-3-sulfonamide]", "values": [{"measurement": "pIC50", "setting": "[1]", "result": "5.80 to 6.10"}, {"measurement": "pIC50", "setting": "[2]", "result": "6.80 to 7.40"}]}
{"smiles": "CC(C)(CO)n1ccc(S(=O)(=O)NC(=O)Nc2c3c(cc4c2CCC4)CCC3)n1", "note": "[Example 20, N-((1,2,3,5,6,7-Hexahydro-s-indacen-4-yl)carbamoyl)-1-(1-hydroxy-2-methylpropan-2-yl)-1H-pyrazole-3-sulfonamide]", "values": [{"measurement": "pIC50", "setting": "[1]", "result": "5.80 to 6.10"}, {"measurement": "pIC50", "setting": "[2]", "result": "6.80 to 7.40"}]}
{"smiles": "C[C@@H](O)Cn1ncc(S(=O)(=O)NC(=O)Nc2c3c(cc4c2CCC4)CCC3)n1", "note": "[Example 33, (R)—N-((1,2,3,5,6,7-Hexahydro-s-indacen-4-yl)carbamoyl)-2-(2-hydroxypropyl)-2H-1,2,3-triazole-4-sulfonamide]", "values": [{"measurement": "pIC50", "setting": "[1]", "result": "5.80 to 6.10"}, {"measurement": "pIC50", "setting": "[2]", "result": "6.19 to 6.80"}]}
{"smiles": "C[C@@H](CO)n1ccc(S(=O)(=O)NC(=O)Nc2c3c(cc4c2CCC4)CCC3)n1", "note": "[Example 15, (S)—N-((1,2,3,5,6,7-Hexahydro-s-indacen-4-yl)carbamoyl)-1-(1-hydroxypropan-2-yl)-1H-pyrazole-3-sulfonamide]", "values": [{"measurement": "pIC50", "setting": "[1]", "result": "5.80 to 6.10"}, {"measurement": "pIC50", "setting": "[2]", "result": "6.80 to 7.40"}]}
{"smiles": "O=C(Nc1c2c(cc3c1CCC3)CCC2)NS(=O)(=O)c1ccn(C[C@@H](O)CO)n1", "note": "[Example 104]", "values": [{"measurement": "pIC50", "setting": "[1]", "result": "5.80 to 6.10"}, {"measurement": "pIC50", "setting": "[2]", "result": "6.19 to 6.80"}]}
{"smiles": "O=C(Nc1c2c(cc3c1CCC3)CCC2)NS(=O)(=O)c1ccn(CCCO)n1", "note": "[Example 7, N-((1,2,3,5,6,7-Hexahydro-s-indacen-4-yl)carbamoyl)-1-(3-hydroxypropyl)-1H-pyrazole-3-sulfonamide]", "values": [{"measurement": "pIC50", "setting": "[1]", "result": "6.10 to 6.40"}, {"measurement": "pIC50", "setting": "[2]", "result": "6.80 to 7.40"}]}
{"smiles": "O=C(Nc1c2c(cc3c1CCC3)CCC2)NS(=O)(=O)c1ccn(CC2CCOC2)n1", "note": "(centres unmarked) [Example 6, N-((1,2,3,5,6,7-Hexahydro-s-indacen-4-yl)carbamoyl)-1-((tetrahydrofuran-3-yl)methyl)-1H-pyrazole-3-sulfonamide]", "values": [{"measurement": "pIC50", "setting": "[1]", "result": "5.80 to 6.10"}, {"measurement": "pIC50", "setting": "[2]", "result": "6.80 to 7.40"}]}
{"smiles": "COC(C)(C)Cn1ccc(S(=O)(=O)NC(=O)Nc2c(C(C)C)cc(F)cc2C(C)C)n1", "note": "[Example 17, N-((4-Fluoro-2,6-diisopropylphenyl)carbamoyl)-1-(2-methoxy-2-methylpropyl)-1H-pyrazole-3-sulfonamide]", "values": [{"measurement": "pIC50", "setting": "[1]", "result": "5.00 to 5.49"}, {"measurement": "pIC50", "setting": "[2]", "result": "5.59 to 6.19"}]}
{"smiles": "O=C(Nc1c2c(cc3c1CCC3)CCC2)NS(=O)(=O)c1ccn(C2CC(O)C2)n1", "note": "(centres unmarked) [Example 34, N-((1,2,3,5,6,7-Hexahydro-s-indacen-4-yl)carbamoyl)-1-(3-hydroxycyclobutyl)-1H-pyrazole-3-sulfonamide]", "values": [{"measurement": "pIC50", "setting": "[1]", "result": "5.80 to 6.10"}, {"measurement": "pIC50", "setting": "[2]", "result": "6.19 to 6.80"}]}
{"smiles": "COC(C)(C)Cn1ccc(S(=O)(=O)NC(=O)Nc2c3c(cc4c2CCC4)CCC3)n1", "note": "[Example 14, N-((1,2,3,5,6,7-Hexahydro-s-indacen-4-yl)carbamoyl)-1-(2-methoxy-2-methylpropyl)-1H-pyrazole-3-sulfonamide]", "values": [{"measurement": "pIC50", "setting": "[1]", "result": "6.10 to 6.40"}, {"measurement": "pIC50", "setting": "[2]", "result": "> 7.40"}]}
